Results from US20080145465A1, “Sesquiterpene lactone extract from artemisia leucodes for reducing inflammation and down-regulating pro-inflammatory gene expression” (priority 2006, published 2008).
“Also recorded” adds a separate entry of the source.

Test system: iNOS
Assay: Quantitative real-time RT-PCR: iNOS gene expression in LPS-elicited RAW 264.7 macrophages
Type: cell-based, murine
Conditions: for iNOS gene expression (LPS control = 100; values less than 100 represent inhibition): Table 4 experiment
Description: RAW 264.7 murine monocyte/macrophages (ATCC TIB-71) were maintained in Dulbecco's Modified Eagle Medium (D-MEM, Invitrogen Corp., Carlsbad, Calif.) supplemented with 10% fetal bovine serum (FBS, Invitrogen Corp., Carlsbad, Calif.) and 1% streptomycin and were kept in a humidified 37° C. incubator with 5% CO2. Cells were subcultured by scraping when plates reached 90% confluency with a 1:5 ratio.
Murine RAW macrophages 264.7 were plated at a density of 0.4×10^6 cells per well in 24-well plates 12 hours prior to treatment. A stock solution of AL-1 was created by completely dissolving the dry extract as in Example 1 in 95% ethanol. Two hours before elicitation with lipopolysaccharide (LPS, 1 μg/ml, Sigma, St. Louis, Mo.) the cells were treated with various concentrations of AL-1 (25-200 μg/ml) or vehicle control, maintaining a final concentration of 0.5% ethanol for all treatments. After six hours of treatment, RNA was extracted from cells using TRIzol® reagent (Invitrogen Corp., Carlsbad, Calif.) according to the manufacturer instructions. RNAs were quantified spectrophotometrically at 260 nm and stored at −80° C. until real-time PCR could be performed.
RNA was purified by treating with DnaseI (Invitrogen Corp., Carlsbad, Calif.) before performing reverse transcription with Stratascript Reverse Transcriptase, an RNA dependent DNA polymerase (Stratagene, La Jolla, Calif.) according to the manufacturer instructions. The cDNAs obtained were then amplified by real-time PCR. Expression of COX-2, iNOS, IL1β and β-actin gene expression levels was quantified using a Stratagene Mx 3000P™ Real-Time PCR System (Stratagene, La Jolla, Calif.). Primers for each gene were designed using Primer Express® version 2.0 software (Applied Biosystems, Foster City, Calif.; Table 2) (Giulietti et al., 2001; Overbergh et al., 2003).
Real-time PCR analyses were carried out using a Brilliant® SYBR® Green PCR master mix kit (Stratagene, La Jolla, Calif.) according to kit instructions. Samples were amplified using the following program: two minutes incubation at 50° C.; initial denaturation and polymerase activation at 95° C. for ten minutes; 40 PCR cycles consisting of 15 seconds at 95° C. and 60 seconds at 60° C. each. The RNA expression of the target genes were analyzed by ΔΔCT methods (Winer et al., 1999) using β-Actin gene as normalizer. The ΔΔCT values obtained from these analyses directly reflect the relative mRNA quantities for the marker gene in response to specific treatments. Lower ΔΔCT values indicate greater anti-inflammatory activity. The changes in gene expression as reflected by ΔΔCT values can also be expressed as percentage genetic inhibition [(1−ΔΔCT)×100] indicating anti-inflammatory properties of the test compounds. Amplification of specific transcripts was further confirmed by obtaining melting curve profiles. All samples were run in duplicate; four independent analyses were performed.

SMILES	iNOS gene expression (LPS control = 100; values less than 100 represent inhibition) (25 μg)	iNOS gene expression (LPS control = 100; values less than 100 represent inhibition) (50 μg)	iNOS gene expression (LPS control = 100; values less than 100 represent inhibition) (75 μg)	effect on iNOS gene expression (in words) (LPS-elicited RAW macrophages)
CC1=CC(=O)C2=C(C)CC[C@@H]3[C@H](OC(=O)[C@H]3C)[C@@H]12 [leukomisin]	127	151	126	no affect on gene expression; also recorded: no activity
CC1=CC(=O)C2=C(C)C[C@H](O)[C@@H]3[C@H](OC(=O)[C@H]3C)[C@@H]12 (single isomer, unassigned) [austricin]	102	108	113	
